One test has as its target T1, XIAP BIR3 (Homo sapiens, UniProt P98170).
T1 construct: covering amino acids 241 to 356; XIAP BIR3; made in house; host or cells: E. coli
In words: XIAP BIR3 binding assay (DELFIA), displacement of SMAC peptide. To be noted: GST-fusion BIR3 domain (aa 241 to 356) 10 nM, SMAC peptide 10 nM; activity of the (S)-isomers. In short, it runs like this:
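Each BIR3 domain (10 nM) incubated with biotinylated N-terminal SMAC peptide (10 nM) and compound for 1 h at room temp in Tris/NaCl buffer with BSA, DTT and Triton X-100. Captured on streptavidin plates; bound BIR3 detected by Eu-labelled anti-GST time-resolved fluorescence, giving IC50 values.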

The next test addresses T2, cIAP1 BIR3 (Homo sapiens, UniProt Q13490).
T2 construct: covering amino acids 256 to 363; cIAP1 BIR3; made in house; host or cells: E. coli
In words: cIAP1 BIR3 binding assay (DELFIA), displacement of SMAC peptide. To be noted: GST-fusion BIR3 domain (aa 256 to 363) 10 nM, SMAC peptide 10 nM; activity of the (S)-isomers. How it is done: Biological Methods XIAP BIR3 and cIAP1 BIR3 Binding Assays (DELFIA)
Peptide […]-Lys(Biotin), representing the N-terminus of mature human SMAC (SMAC peptide), was used as interaction partner in the protein-peptide interaction assay.
BIR3 domains (10 nM) were incubated with SMAC peptide (10 nM) in Assay Buffer (50 mM Tris, 120 mM NaCl, 0.1% BSA, 1 mM DTT, 0.05% TritonX100) for one hour at room temperature in the presence of inhibitiory compounds. The assay mixture was transferred to a strepatvidin coated plate and incubated for one hour at room temperature to allow binding of the biotinylated peptide and associated BIR3 domains to the plate. After several washing steps Eu labeled anti-GST antibody (e.g. Perkin Elmer DELFIA Eu-N1-antiGST AD0250) was added to detect BIR3 domain-SMAC peptide interactions according to Perkin Elmer's instructions. […] Time resolved Europium fluoresecence was measured in a Wallac Victor using Standard assay settings.
DELFIA assay results were plotted against compound concentrations and Software GraphPad Prizm was used to calculate half maximal inhibitory concentrations (IC50 values).

T1 sequence (P98170 241-356): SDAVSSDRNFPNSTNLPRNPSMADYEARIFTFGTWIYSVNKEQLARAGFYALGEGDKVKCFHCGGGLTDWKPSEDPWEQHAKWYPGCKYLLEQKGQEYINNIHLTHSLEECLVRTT
T2 sequence (Q13490 256-363): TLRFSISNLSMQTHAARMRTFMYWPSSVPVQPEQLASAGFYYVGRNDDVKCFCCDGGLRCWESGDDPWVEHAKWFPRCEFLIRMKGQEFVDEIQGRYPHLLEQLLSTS

As a reminder, the IC50 is the midpoint of a concentration-inhibition curve. A higher IC50 goes with weaker potency in that assay. Regarding `CNC(C)C(=O)Nc1ccc(-c2c(C)nc(N3CCOCC3)nc2C)c(C#Cc2ccc3ncccc3c2)n1` (stereo not shown) [Example 54, N-[5-(4,6-dimethyl-2-morpholin-4-ylpyrimidin-5-yl)-6-(2-quinolin-6-ylethynyl)-pyridin-2-yl]-2-(methylamino)-propanamide], the figures for the IC50 on XIAP BIR3 and on cIAP1 BIR3 were 863 nM and 1 nM, respectively.

As to `CNC(C)C(=O)Nc1ccc(-c2c(C)nc3ccccn23)c(C#Cc2nn(C)c3ncccc23)n1` (stereo not shown) [Example 58, 2-(methylamino)-N-[5-(2-methylimidazo[1,2-a]pyridin-3-yl)-6-[2-(1-methylpyrazolo[3,4-b]pyridin-3-yl)ethynyl]pyridin-2-yl]propanamide], the IC50 at XIAP BIR3 was determined as 224 nM; at cIAP1 BIR3 it was 5 nM.

Regarding `CNC(C)C(=O)Nc1ccc(-c2c(C)nc3ccccn23)c(C#Cc2cnc3ccccn23)n1` (stereo not shown) [Example 60, N-[6-(2-imidazo[1,2-a]pyridin-3-ylethynyl)-5-(2-methyl-imidazo[1,2-a]pyridin-3-yl)-pyridin-2-yl]-2-(methylamino)-propanamide], the IC50 on XIAP BIR3 was determined as 184 nM; on cIAP1 BIR3 it was 2 nM.

Turning to `CNC(C)C(=O)Nc1ccc(-c2c(C)nc3ccccn23)c(C#Cc2nn(C)c3ccccc23)n1` (stereo not shown) [Example 61, 2-(methylamino)-N-[5-(2-methylimidazo[1,2-a]pyridin-3-yl)-6-[2-(1-methylindazol-3-yl)-ethynyl]pyridin-2-yl]propan-amide], the IC50 turned out to be 187 nM at XIAP BIR3 and 5 nM on cIAP1 BIR3.

As to `CNC(C)C(=O)Nc1ccc(-c2c(C)nc3ccccn23)c(C#Cc2ccc(C(N)=O)cc2)n1` (stereo not shown) [Example 63, 4-[2-[6-[[2-(methylamino)-propanoyl]amino]-3-(2-methyl-imidazo[1,2-a]pyridin-3-yl)-pyridin-2-yl]ethynyl]benzamide], the results for the IC50 at XIAP BIR3 and on cIAP1 BIR3 were 70 nM and 1 nM, respectively.

For the compound `CNC(C)C(=O)Nc1ccc(-c2c(-c3ccncc3)nc3cc(C)ccn23)c(C#Cc2ccc3nc(C)ccc3c2)n1` (stereo not shown) [Example 64, 2-(methylamino)-N-[5-(7-methyl-2-pyridin-4-ylimidazo[1,2-a]pyridin-3-yl)-6-[2-(2-methylquinolin-6-yl)-ethynyl]pyridin-2-yl]propan-amide], the results for the IC50 at XIAP BIR3 and at cIAP1 BIR3 were 152 nM and 1 nM, respectively.

For `CNC(C)C(=O)Nc1ccc(-c2c(C)nc3ccccn23)c(C#Cc2ccc3c(c2)CC(=O)N3C)n1` (stereo not shown) [Example 66, 2-(methylamino)-N-[5-(2-methyliniidazo[1,2-a]pyridin-3-yl)-6-[2-(1-methyl-2-oxo-3H-indol-5-yl)ethynyl]pyridin-2-yl]-propanamide], the IC50 amounted to 252 nM on XIAP BIR3 and 1 nM at cIAP1 BIR3.

In the case of `CNC(C)C(=O)Nc1ccc(-c2c(C)nc3ccccn23)c(C#Cc2ccc3c(c2)CCO3)n1` (stereo not shown) [Example 69, N-[6-[2-(2,3-dihydro-1-benzofuran-5-yl)ethynyl]-5-(2-methylimidazo[1,2-a]pyridin-3-yl)pyridin-2-yl]-2-(methyl-amino)propanamide], the figures for the IC50 on XIAP BIR3 and on cIAP1 BIR3 were 110 nM and 2 nM, respectively.

`CNC(C)C(=O)Nc1ccc(-c2c(C)nc3ccccn23)c(C#Cc2cc3ccccc3o2)n1` (stereo not shown) [Example 70, N-[6-[2-(1-benzofuran-2-yl)-ethynyl]-5-(2-methyl-imidazo[1,2-a]pyridin-3-yl)-pyridin-2-yl]-2-(methylamino)-propanamide]: the concentration for half-maximal inhibition (IC50) on XIAP BIR3 stood at 66 nM; on cIAP1 BIR3, 1 nM.

Regarding `CNC(C)C(=O)Nc1ccc(-c2c(C)nc3ccccn23)c(C#Cc2ccc3c(c2)oc(=O)n3C)n1` (stereo not shown) [Example 71, 2-(methylamino)-N-[5-(2-methylimidazo[1,2-a]pyridin-3-yl)-6-[2-(3-methyl-2-oxo-1,3-benzoxazol-6-yl)ethynyl]-pyridin-2-yl]propanamide], the IC50 amounted to 300 nM on XIAP BIR3 and 1 nM at cIAP1 BIR3.

Turning to `CNC(C)C(=O)Nc1ccc(-c2c(C)nc3ccccn23)c(C#Cc2ccc3nn(C)cc3c2)n1` (stereo not shown) [Example 72, 2-(methylamino)-N-[5-(2-methylimidazo[1,2-a]pyridin-3-yl)-6-[2-(2-methylindazol-5-yl)-ethynyl]pyridin-2-yl]propan-amide], the IC50 at XIAP BIR3 worked out at 145 nM; at cIAP1 BIR3, 1 nM.

For `CNC(C)C(=O)Nc1ccc(-c2c(C)nc3ccccn23)c(C#Cc2ccc3oc(=O)n(C)c3c2)n1` (stereo not shown) [Example 74, 2-(methylamino)-N-[5-(2-methylimidazo[1,2-a]pyridin-3-yl)-6-[2-(3-methyl-2-oxo-1,3-benzoxazol-5-yl)ethynyl]-pyridin-2-yl]propanamide], the values for the IC50 at XIAP BIR3 and at cIAP1 BIR3 were 175 nM and 1 nM, respectively.

In the case of `CNC(C)C(=O)Nc1ccc(-c2c(C)nc(N(C)C)nc2C)c(C#Cc2ccc3c(ccc(=O)n3C)c2)n1` (stereo not shown) [Example 75, N-[5-[2-(dimethylamino)-4,6-dimethylpyrimidin-5-yl]-6-[2-(1-methyl-2-oxoquinolin-6-yl)-ethynyl]pyridin-2-yl]-2-(methyl-amino)propanamide], the IC50 was determined as 1670 nM at XIAP BIR3 and 1 nM on cIAP1 BIR3.

Regarding `CNC(C)C(=O)Nc1ccc(-c2c(C)nc3ccccn23)c(C#Cc2ccc3c(OC)nccc3c2)n1` (stereo not shown) [Example 77, N-[6-[2-(1-methoxyisoquinolin-6-yl)ethynyl]-5-(2-methyl-imidazo[1,2-a]pyridin-3-yl)-pyridin-2-yl]-2-(methylamino)-propanamide], the half-maximal inhibitory concentration (IC50) at XIAP BIR3 amounted to 196 nM; at cIAP1 BIR3, 1 nM.

For the compound `CNC(C)C(=O)Nc1ccc(-c2c(-c3ccncc3)nc3cc(C)ccn23)c(C#Cc2ccc(F)c3ncccc23)n1` (stereo not shown) [Example 78, N-[6-[2-(8-fluoroquinolin-5-yl)-ethynyl]-5-(7-methyl-2-pyridin-4-ylimidazo[1,2-a]pyridin-3-yl)-pyridin-2-yl]-2-(methylamino)-propanamide], the IC50 at XIAP BIR3 was determined as 47 nM; at cIAP1 BIR3, 2 nM.

Consider `CNC(C)C(=O)Nc1ccc(-c2c(C)nc(N3CCCC3)nc2C)c(C#Cc2ccc3c(ccc(=O)n3C)c2)n1` (stereo not shown) [Example 79, N-[5-(4,6-dimethyl-2-pyrrolidin-1-ylpyrimidin-5-yl)-6-[2-(1-methyl-2-oxoquinolin-6-yl)-ethynyl]pyridin-2-yl]-2-(methyl-amino)propanamide], for which the values for the IC50 on XIAP BIR3 and on cIAP1 BIR3 were 2400 nM and 1 nM, respectively.

As to `CNC(C)C(=O)Nc1ccc(-c2c(C)nc(N3CCCC3)nc2C)c(C#Cc2ccc3ncccc3c2)n1` (stereo not shown) [Example 80, N-[5-(4,6-dimethyl-2-pyrrolidin-1-ylpyrimidin-5-yl)-6-(2-quinolin-6-ylethynyl)pyridin-2-yl]-2-(methylamino)propan-amide], the figures for the IC50 on XIAP BIR3 and on cIAP1 BIR3 were 1310 nM and 1 nM, respectively.

Regarding `CNC(C)C(=O)Nc1ccc(-c2c(-c3ccncc3)nc3cc(C)ccn23)c(C#Cc2ccc3c(ccc(=O)n3C)c2)n1` (stereo not shown) [Example 81, 2-(methylamino)-N-[6-[2-(1-methyl-2-oxoquinolin-6-yl)-ethynyl]-5-(7-methyl-2-pyridin-4-ylimidazo[1,2-a]pyridin-3-yl)-pyridin-2-yl]propanamide], the values for the IC50 at XIAP BIR3 and on cIAP1 BIR3 were 253 nM and 1 nM, respectively.

Regarding `CNC(C)C(=O)Nc1ccc(-c2c(-c3ccncc3)nc3cc(C)ccn23)c(C#Cc2ccc(-c3ccon3)cc2)n1` (stereo not shown) [Example 82, 2-(methylamino)-N-[5-(7-methyl-2-pyridin-4-ylimidazo[1,2-a]pyridin-3-yl)-6-[2-[4-(1,2-oxazol-3-yl)phenyl]-ethynyl]pyridin-2-yl]propan-amide], the IC50 on XIAP BIR3 was 61 nM; on cIAP1 BIR3 it was 1 nM.

With `CNC(C)C(=O)Nc1ccc(-c2c(C)nc(N3CCOCC3)nc2C)c(C#Cc2ccc3c(c2)CC(=O)N3C)n1` (stereo not shown) [Example 87, N-[5-(4,6-dimethyl-2-morpholin-4-ylpyrimidin-5-yl)-6-[2-(1-methyl-2-oxo-3H-indol-5-yl)ethynyl]pyridin-2-yl]-2-(methylamino)propanamide], the IC50 on XIAP BIR3 worked out at 1450 nM; on cIAP1 BIR3, 1 nM.

Regarding `CNC(C)C(=O)Nc1ccc(-c2c(C)nc3ccccn23)c(C#Cc2ccc(-n3ccnc3)cc2)n1` (stereo not shown) [Example 88, N-[6-[2-(4-imidazol-1-ylphenyl)ethynyl]-5-(2-methyl-imidazo[1,2-a]pyridin-3-yl)-pyridin-2-yl]-2-(methylamino)-propanamide], the results for the IC50 on XIAP BIR3 and on cIAP1 BIR3 were 207 nM and 1 nM, respectively.

As to `CNC(C)C(=O)Nc1ccc(-c2c(C)nc3ccccn23)c(C#Cc2cccc3ncccc23)n1` (stereo not shown) [Example 89, 2-(methylamino)-N-[5-(2-methylimidazo[1,2-a]pyridin-3-yl)-6-(2-quinolin-5-ylethynyl)-pyridin-2-yl]propanamide], the IC50 at XIAP BIR3 was 92 nM; at cIAP1 BIR3 it was 2 nM.

On to `CNC(C)C(=O)Nc1ccc(-c2c(C)nc3ccccn23)c(C#Cc2ccc(-n3cccn3)cc2)n1` (stereo not shown) [Example 90, 2-(methylamino)-N-[5-(2-methylimidazo[1,2-a]pyridin-3-yl)-6-[2-(4-pyrazol-1-ylphenyl)-ethynyl]pyridin-2-yl]propan-amide], for which the IC50 on XIAP BIR3 stood at 166 nM; at cIAP1 BIR3, 1 nM.

The values are drawn from patent US8859541B2, “6-alkynylpyridines” (Boehringer Ingelheim International GmbH, priority 2012, dated 2014).
